Results from patent publication US20170280720A1, “ARGININE […] INHIBITORS AND USES THEREOF” (EPIZYME, INC., priority 2014, published 2017).

molecular target: T1, Human CARM1 (PRMT4) (Homo sapiens, UniProt Q86X55); assay: CARM1 biochemical assay (3H-SAM Flashplate, peptide substrate); conditions: read-out: CARM1_ IC50
T1 construct: Flag-CARM1-His; made in house; host or cells: HEK 293F cells (BacMam baculovirus, pFastBacMam)
T1 sequence (Q86X55 2-585 isoform Q86X55-1): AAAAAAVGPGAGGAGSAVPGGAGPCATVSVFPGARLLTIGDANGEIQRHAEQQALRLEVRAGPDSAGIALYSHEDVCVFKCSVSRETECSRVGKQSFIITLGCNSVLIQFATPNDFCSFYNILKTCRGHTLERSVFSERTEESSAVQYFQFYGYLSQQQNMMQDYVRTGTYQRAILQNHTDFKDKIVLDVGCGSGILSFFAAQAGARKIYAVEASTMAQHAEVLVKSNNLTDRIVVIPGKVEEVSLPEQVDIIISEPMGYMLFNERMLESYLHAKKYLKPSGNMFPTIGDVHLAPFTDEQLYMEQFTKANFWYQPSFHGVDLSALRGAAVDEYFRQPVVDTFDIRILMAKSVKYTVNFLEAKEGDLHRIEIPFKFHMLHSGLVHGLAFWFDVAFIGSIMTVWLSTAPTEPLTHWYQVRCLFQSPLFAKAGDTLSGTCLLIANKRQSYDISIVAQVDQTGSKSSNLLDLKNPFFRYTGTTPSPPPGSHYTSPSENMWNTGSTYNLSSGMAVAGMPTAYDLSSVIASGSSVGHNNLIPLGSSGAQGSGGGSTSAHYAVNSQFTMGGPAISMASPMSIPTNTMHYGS
Procedure, shortened: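 FLAG/His-tagged human CARM1 (isoform 1, Δ539-561, baculovirus-expressed), 0.25 nM, preincubated 30 min at room temperature with compound (2% DMSO) in 20 mM Bicine pH 7.6, then reacted with 30 nM 3H-SAM and 250 nM biotinylated H3 16-30 peptide (R26 monomethyl). Stopped with 300 uM cold SAM; labelled peptide captured on streptavidin Flashplate; % inhibition versus DMSO and 1 mM SAH controls fitted to a 4- or 3-parameter curve.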

| IC50 [nM] | Compound |
| --- | --- |
| 6870 | COc1ccccc1-c1nc2ccc(-c3ccc(CNCCN)cc3)cc2[nH]1 [Compound 115] |
| 32.4 | CNCCN(C)Cc1cccc(-c2cc(C(=O)NCc3ccccn3)c3cnn(C(C)C)c3n2)c1 [Compound 98] |
| 381 | CNCCN(C)Cc1cccc(-c2ccc3cnn(C(C)C)c3n2)c1 [Compound 73] |
| 22.2 | CNCCN(C)Cc1cccc(-c2cc(NC3COC3)c3cnn(C(C)C)c3n2)c1 [Compound 58] |
| 5.02 | CNCCN(C)Cc1cccc(-c2nc(N(C)C3CCOCC3)c3cnn(C4CC4)c3n2)c1 [Compound 109, N1-(3-(1-cyclopropyl-4-(methyl(tetrahydro-2H-pyran-4-yl)amino)-1H-pyrazolo[3,4-d]pyrimidin-6-yl)benzyl)-N1,N2-dimethylethane-1,2-diamine] |
| 27.6 | CNCCN(C)Cc1cccc(-c2cc(N3CCC(C(F)(F)F)CC3)c3cnn(C(C)C)c3n2)c1 [Compound 50] |
| 18 | CNCCN(C)Cc1cccc(-c2cc(C(=O)NCCCCC(=O)NCC3CCOCC3)c3cnn(C(C)C)c3n2)c1 [Compound 118] |
| 109 | CCNc1cc(-c2cccc(CN(C)CCNC)c2)nc2c1cnn2C(C)C [Compound 72] |
| 3870 | COc1cccc(Cn2cnc3ccc(-c4ccc(CN(C)CCN)cc4)cc32)c1 [Compound 8] |
| 13.7 | CC(C)n1ncc2c(NC(=O)OCc3ccccc3)cc(-c3cccc(CN(C)CCN)c3)nc21 [Compound 84] |
| 1400 | CNCCN(C)Cc1cccc(-c2cnc3c(c2)c(C2CC2)nn3CC2CCOCC2)c1 [Compound 4] |
| 36.5 | CNCCN(C)Cc1cccc(-c2cc(N(C)C3CC3)c3cnn(C(C)C)c3n2)c1 [Compound 95] |
| 14.5 | CNCCN(C)Cc1cccc(-c2cc(N3CCC3)c3cnn(C(C)C)c3n2)c1 [Compound 79] |
| 28.1 | CNCCN(C)Cc1cccc(-c2cc(-c3ccoc3)c3cnn(C(C)C)c3n2)c1 [Compound 67] |
| 33.4 | CNCCN(C)Cc1cccc(-c2cc(C(=O)NCCCCCC(=O)NCc3ccn(C)n3)c3cnn(C(C)C)c3n2)c1 [Compound 117] |
| 36.8 | CNCCN(C)Cc1cccc(-c2cc(C(=O)NC3CCOCC3)c3cnn(C4CC4)c3n2)c1 [Compound 87] |
| 46 | CC(C)n1ncc2c(C(=O)N(C)[C@@H](C)c3ccccc3)cc(-c3cccc(CN(C)CCN)c3)cc21 [Compound 3] |
| 13.5 | CNCCN(C)Cc1cccc(-c2cc(C(=O)NCCCCC(=O)NCc3ccn(C)n3)c3cnn(C(C)C)c3n2)c1 [Compound 122] |
| 8130 | Cc1ccccc1Cn1cnc2ccc(-c3ccc(CNCCN)cc3)cc21 [Compound 82] |
| 29.6 | CNCCN(C)Cc1cccc(-c2cc(NC(=O)N(C)C)c3cnn(C(C)C)c3n2)c1 [Compound 123] |
| 17.2 | CNCCN(C)Cc1cccc(-c2cc(C(=O)NCCCC(=O)NCC3CCOCC3)c3cnn(C(C)C)c3n2)c1 [Compound 60] |
| 14 | CNCCN(C)Cc1cccc(-c2cc(NC(=O)NC(C)C)c3cnn(C(C)C)c3n2)c1 [Compound 85] |
| 17.9 | CNCCN(C)Cc1cccc(-c2nc(NC3CC3)c3cnn(C4CC4)c3n2)c1 [Compound 114] |
| 23.9 | CNCCN(C)Cc1cccc(-c2cc(C(=O)NCCCCCC(=O)NCC3CCOCC3)c3cnn(C(C)C)c3n2)c1 [Compound 112] |
